Experiments:
[1] = tested on: Fibroblast growth factor receptor 3 (Homo sapiens), P22607 [G697C]; conditions: Compound concentration 1000.0 nM
[2] = biological target: Serine/threonine-protein kinase 32A (Homo sapiens) (UniProt Q8WU08); conditions: Compound concentration 1000.0 nM
[3] = tested on: Tyrosine-protein kinase ABL1 (Homo sapiens), P00519 [H396P]; conditions: Compound concentration 1000.0 nM
[4] = biological target: Serine/threonine-protein kinase ULK3 (Homo sapiens) (UniProt Q6PHR2); conditions: Compound concentration 1000.0 nM
[5] = biological target: Serine/threonine-protein kinase ULK2 (Homo sapiens) (UniProt Q8IYT8); conditions: Compound concentration 1000.0 nM
[6] = biological target: Tyrosine-protein kinase JAK3 (Homo sapiens) (UniProt P52333); conditions: Compound concentration 1000.0 nM
[7] = biological target: Mitogen-activated protein kinase kinase kinase 9 (Homo sapiens) (UniProt P80192); conditions: Compound concentration 1000.0 nM
[8] = biological target: Mitogen-activated protein kinase kinase kinase kinase 5 (Homo sapiens) (UniProt Q9Y4K4); conditions: Compound concentration 1000.0 nM
Mitogen-activated protein kinase kinase kinase kinase 5 (Homo sapiens), sequence (Q9Y4K4 whole entry, looked up, the tested form may be a part): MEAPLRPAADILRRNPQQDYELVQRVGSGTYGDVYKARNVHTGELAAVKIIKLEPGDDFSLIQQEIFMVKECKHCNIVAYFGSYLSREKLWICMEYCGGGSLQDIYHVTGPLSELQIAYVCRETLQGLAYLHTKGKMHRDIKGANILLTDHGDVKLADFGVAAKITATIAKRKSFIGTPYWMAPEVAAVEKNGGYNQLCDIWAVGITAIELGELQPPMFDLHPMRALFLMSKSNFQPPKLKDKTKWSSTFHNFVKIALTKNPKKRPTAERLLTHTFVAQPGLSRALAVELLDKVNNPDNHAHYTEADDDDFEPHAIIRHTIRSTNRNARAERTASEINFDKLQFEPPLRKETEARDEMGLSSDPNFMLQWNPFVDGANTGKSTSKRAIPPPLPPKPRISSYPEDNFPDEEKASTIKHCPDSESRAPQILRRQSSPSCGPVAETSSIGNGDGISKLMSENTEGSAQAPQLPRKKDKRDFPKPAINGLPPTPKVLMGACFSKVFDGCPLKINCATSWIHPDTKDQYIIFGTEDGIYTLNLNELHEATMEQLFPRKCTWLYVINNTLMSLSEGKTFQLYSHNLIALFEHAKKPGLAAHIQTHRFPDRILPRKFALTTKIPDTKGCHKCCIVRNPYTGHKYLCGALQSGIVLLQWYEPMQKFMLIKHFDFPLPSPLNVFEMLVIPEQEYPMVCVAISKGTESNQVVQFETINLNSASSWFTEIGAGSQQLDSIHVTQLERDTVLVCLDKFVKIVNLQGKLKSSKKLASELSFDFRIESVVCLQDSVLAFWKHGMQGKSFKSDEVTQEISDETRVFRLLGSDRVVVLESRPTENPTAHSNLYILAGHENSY

[9] = biological target: Phosphatidylinositol 4-phosphate 3-kinase C2 domain-containing subunit beta (Homo sapiens) (UniProt O00750); conditions: Compound concentration 1000.0 nM
[10] = biological target: Phosphorylase b kinase regulatory subunit alpha, liver isoform (Homo sapiens) (UniProt P46019); conditions: Compound concentration 1000.0 nM
[11] = biological target: Calcium/calmodulin-dependent protein kinase type 1G (Homo sapiens) (UniProt Q96NX5); conditions: Compound concentration 1000.0 nM
Calcium/calmodulin-dependent protein kinase type 1G (Homo sapiens), sequence (Q96NX5 whole entry): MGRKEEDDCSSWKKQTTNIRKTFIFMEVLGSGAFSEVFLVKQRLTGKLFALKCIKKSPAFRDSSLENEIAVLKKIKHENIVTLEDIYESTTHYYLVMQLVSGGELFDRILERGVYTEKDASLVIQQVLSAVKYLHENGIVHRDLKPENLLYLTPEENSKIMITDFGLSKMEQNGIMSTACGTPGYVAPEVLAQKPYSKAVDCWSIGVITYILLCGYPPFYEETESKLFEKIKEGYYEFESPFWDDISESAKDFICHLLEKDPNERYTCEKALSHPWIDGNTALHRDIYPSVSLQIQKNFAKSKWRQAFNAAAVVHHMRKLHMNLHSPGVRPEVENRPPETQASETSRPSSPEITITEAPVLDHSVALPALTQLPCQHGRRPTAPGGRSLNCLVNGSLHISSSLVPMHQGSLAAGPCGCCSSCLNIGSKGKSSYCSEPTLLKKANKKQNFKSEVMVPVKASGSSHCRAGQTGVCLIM

[12] = biological target: Myosin light chain kinase 2, skeletal/cardiac muscle (Homo sapiens) (UniProt Q9H1R3); conditions: Compound concentration 1000.0 nM
[13] = tested on: Tyrosine-protein kinase ABL1 (Homo sapiens), P00519 [F317L]; conditions: Compound concentration 1000.0 nM
[14] = biological target: LIM domain kinase 1 (Homo sapiens) (UniProt P53667); conditions: Compound concentration 1000.0 nM
[15] = biological target: Muscle, skeletal receptor tyrosine-protein kinase (Homo sapiens) (UniProt O15146); conditions: Compound concentration 1000.0 nM
[16] = biological target: Serine/threonine-protein kinase Nek4 (Homo sapiens) (UniProt P51957); conditions: Compound concentration 1000.0 nM
[17] = biological target: Phosphatidylinositol 4,5-bisphosphate 3-kinase catalytic subunit gamma isoform (Homo sapiens) (UniProt P48736); conditions: Compound concentration 1000.0 nM
[18] = biological target: Dual specificity protein kinase TTK (Homo sapiens) (UniProt P33981); conditions: Compound concentration 1000.0 nM
[19] = biological target: Cyclin-dependent kinase-like 2 (Homo sapiens) (UniProt Q92772); conditions: Compound concentration 1000.0 nM
[20] = biological target: Receptor tyrosine-protein kinase erbB-2 (Homo sapiens) (UniProt P04626); conditions: Compound concentration 1000.0 nM
[21] = biological target: Dual specificity mitogen-activated protein kinase kinase 6 (Homo sapiens) (UniProt P52564); conditions: Compound concentration 1000.0 nM
[22] = biological target: Serine/threonine-protein kinase D3 (Homo sapiens) (UniProt O94806); conditions: Compound concentration 1000.0 nM
[23] = biological target: Dual specificity mitogen-activated protein kinase kinase 7 (Homo sapiens) (UniProt O14733); conditions: Compound concentration 1000.0 nM
[24] = biological target: Mitogen-activated protein kinase 12 (Homo sapiens) (UniProt P53778); conditions: Compound concentration 1000.0 nM
[25] = biological target: Death-associated protein kinase 3 (Homo sapiens) (UniProt O43293); conditions: Compound concentration 1000.0 nM
[26] = biological target: Cytoplasmic tyrosine-protein kinase BMX (Homo sapiens) (UniProt P51813); conditions: Compound concentration 1000.0 nM
Cytoplasmic tyrosine-protein kinase BMX (Homo sapiens), sequence (P51813 whole entry): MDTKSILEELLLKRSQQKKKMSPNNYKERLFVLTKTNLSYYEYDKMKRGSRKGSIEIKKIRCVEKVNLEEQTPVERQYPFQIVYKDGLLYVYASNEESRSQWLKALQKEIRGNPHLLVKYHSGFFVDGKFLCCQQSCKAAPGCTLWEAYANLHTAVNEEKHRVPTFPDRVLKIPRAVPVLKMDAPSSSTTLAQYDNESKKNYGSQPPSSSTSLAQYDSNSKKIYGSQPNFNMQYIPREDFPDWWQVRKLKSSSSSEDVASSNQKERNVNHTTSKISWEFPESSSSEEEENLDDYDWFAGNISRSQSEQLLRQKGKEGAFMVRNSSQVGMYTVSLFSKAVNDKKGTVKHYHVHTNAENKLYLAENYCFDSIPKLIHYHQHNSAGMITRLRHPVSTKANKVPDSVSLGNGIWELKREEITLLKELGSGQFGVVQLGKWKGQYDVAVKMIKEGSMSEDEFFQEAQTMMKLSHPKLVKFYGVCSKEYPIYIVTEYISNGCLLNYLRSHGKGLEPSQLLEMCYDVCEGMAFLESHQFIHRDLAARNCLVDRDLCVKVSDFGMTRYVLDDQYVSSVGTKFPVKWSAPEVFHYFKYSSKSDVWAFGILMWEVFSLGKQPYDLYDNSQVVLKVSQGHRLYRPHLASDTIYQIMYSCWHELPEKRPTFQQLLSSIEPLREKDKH

[27] = biological target: Ephrin type-A receptor 3 (Homo sapiens) (UniProt P29320); conditions: Compound concentration 1000.0 nM
Ephrin type-A receptor 3 (Homo sapiens), sequence (P29320 whole entry): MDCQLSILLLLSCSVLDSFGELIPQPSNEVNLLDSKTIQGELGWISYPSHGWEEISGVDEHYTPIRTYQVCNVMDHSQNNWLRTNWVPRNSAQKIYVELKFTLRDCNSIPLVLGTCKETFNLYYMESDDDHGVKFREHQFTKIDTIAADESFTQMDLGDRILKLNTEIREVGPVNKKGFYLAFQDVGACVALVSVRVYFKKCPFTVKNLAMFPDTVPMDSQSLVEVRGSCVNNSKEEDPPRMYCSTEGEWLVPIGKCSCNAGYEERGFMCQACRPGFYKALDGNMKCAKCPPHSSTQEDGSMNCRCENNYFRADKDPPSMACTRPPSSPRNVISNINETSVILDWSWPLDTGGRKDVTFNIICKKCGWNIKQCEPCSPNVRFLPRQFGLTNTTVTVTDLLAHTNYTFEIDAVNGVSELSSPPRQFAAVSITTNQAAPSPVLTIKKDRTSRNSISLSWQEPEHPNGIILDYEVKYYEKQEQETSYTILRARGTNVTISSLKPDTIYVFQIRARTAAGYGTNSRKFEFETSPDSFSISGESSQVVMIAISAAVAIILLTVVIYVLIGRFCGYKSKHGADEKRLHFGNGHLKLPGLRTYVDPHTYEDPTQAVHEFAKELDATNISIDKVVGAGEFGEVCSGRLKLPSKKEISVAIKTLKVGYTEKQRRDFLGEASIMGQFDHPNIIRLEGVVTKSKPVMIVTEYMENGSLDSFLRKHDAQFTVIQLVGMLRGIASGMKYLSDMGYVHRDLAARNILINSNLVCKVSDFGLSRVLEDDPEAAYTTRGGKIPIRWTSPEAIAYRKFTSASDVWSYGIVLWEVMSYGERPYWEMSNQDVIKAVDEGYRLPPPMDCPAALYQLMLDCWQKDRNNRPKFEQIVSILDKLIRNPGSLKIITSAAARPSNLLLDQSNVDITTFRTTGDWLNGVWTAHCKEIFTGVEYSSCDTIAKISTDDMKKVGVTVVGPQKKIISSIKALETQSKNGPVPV

[28] = biological target: Serine/threonine-protein kinase Nek6 (Homo sapiens) (UniProt Q9HC98); conditions: Compound concentration 1000.0 nM
[29] = biological target: Serine/threonine-protein kinase MRCK beta (Homo sapiens) (UniProt Q9Y5S2); conditions: Compound concentration 1000.0 nM
[30] = biological target: Mitotic checkpoint serine/threonine-protein kinase BUB1 (Homo sapiens) (UniProt O43683); conditions: Compound concentration 1000.0 nM
[31] = biological target: Serine/threonine-protein kinase NIM1 (Homo sapiens) (UniProt Q8IY84); conditions: Compound concentration 1000.0 nM
[32] = biological target: Serine/threonine-protein kinase TAO2 (Homo sapiens) (UniProt Q9UL54); conditions: Compound concentration 1000.0 nM
[33] = biological target: Dual specificity protein kinase CLK3 (Homo sapiens) (UniProt P49761); conditions: Compound concentration 1000.0 nM
Dual specificity protein kinase CLK3 (Homo sapiens), sequence (P49761 whole entry, looked up): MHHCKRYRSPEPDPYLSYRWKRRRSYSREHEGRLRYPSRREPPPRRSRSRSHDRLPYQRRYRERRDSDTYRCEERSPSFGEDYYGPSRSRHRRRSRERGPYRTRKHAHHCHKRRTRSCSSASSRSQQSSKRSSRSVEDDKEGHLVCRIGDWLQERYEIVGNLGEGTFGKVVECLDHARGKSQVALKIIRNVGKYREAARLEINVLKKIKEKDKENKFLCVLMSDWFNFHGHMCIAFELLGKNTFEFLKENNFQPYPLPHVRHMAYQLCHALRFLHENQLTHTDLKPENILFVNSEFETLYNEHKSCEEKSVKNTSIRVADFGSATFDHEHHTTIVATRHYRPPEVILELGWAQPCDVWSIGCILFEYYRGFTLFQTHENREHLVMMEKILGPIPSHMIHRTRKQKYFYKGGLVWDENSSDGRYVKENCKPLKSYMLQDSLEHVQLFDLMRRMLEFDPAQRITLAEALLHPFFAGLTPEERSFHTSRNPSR

[34] = biological target: Serine/threonine-protein kinase PAK 3 (Homo sapiens) (UniProt O75914); conditions: Compound concentration 1000.0 nM
[35] = biological target: Ribosomal protein S6 kinase alpha-1 (Homo sapiens) (UniProt Q15418); conditions: Compound concentration 1000.0 nM
[36] = biological target: Serine/threonine-protein kinase B-raf (Homo sapiens) (UniProt P15056); conditions: Compound concentration 1000.0 nM
[37] = biological target: Calcium/calmodulin-dependent protein kinase type 1 (Homo sapiens) (UniProt Q14012); conditions: Compound concentration 1000.0 nM
Calcium/calmodulin-dependent protein kinase type 1 (Homo sapiens), sequence (Q14012 whole entry, looked up): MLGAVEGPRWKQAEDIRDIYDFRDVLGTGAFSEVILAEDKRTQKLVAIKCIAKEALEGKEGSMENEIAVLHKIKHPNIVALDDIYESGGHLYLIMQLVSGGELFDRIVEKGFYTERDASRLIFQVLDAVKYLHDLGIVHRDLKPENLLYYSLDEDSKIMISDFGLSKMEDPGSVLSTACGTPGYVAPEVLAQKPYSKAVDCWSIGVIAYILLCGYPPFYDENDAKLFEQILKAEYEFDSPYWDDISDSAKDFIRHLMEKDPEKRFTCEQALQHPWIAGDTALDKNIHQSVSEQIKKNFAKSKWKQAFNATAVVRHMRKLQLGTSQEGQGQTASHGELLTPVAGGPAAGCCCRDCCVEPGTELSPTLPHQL

[38] = tested on: Proto-oncogene tyrosine-protein kinase receptor Ret (Homo sapiens), P07949 [M918T]; conditions: Compound concentration 1000.0 nM
[39] = biological target: Rhodopsin kinase GRK1 (Homo sapiens) (UniProt Q15835); conditions: Compound concentration 1000.0 nM
[40] = biological target: Mitogen-activated protein kinase 1 (Homo sapiens) (UniProt P28482); conditions: Compound concentration 1000.0 nM
[41] = biological target: D(1A) dopamine receptor (Homo sapiens) (UniProt P21728); conditions: Compound concentration 10.0 uM
[42] = biological target: RAC-gamma serine/threonine-protein kinase (Homo sapiens) (UniProt Q9Y243); conditions: Compound concentration 1000.0 nM
RAC-gamma serine/threonine-protein kinase (Homo sapiens), sequence (Q9Y243 whole entry): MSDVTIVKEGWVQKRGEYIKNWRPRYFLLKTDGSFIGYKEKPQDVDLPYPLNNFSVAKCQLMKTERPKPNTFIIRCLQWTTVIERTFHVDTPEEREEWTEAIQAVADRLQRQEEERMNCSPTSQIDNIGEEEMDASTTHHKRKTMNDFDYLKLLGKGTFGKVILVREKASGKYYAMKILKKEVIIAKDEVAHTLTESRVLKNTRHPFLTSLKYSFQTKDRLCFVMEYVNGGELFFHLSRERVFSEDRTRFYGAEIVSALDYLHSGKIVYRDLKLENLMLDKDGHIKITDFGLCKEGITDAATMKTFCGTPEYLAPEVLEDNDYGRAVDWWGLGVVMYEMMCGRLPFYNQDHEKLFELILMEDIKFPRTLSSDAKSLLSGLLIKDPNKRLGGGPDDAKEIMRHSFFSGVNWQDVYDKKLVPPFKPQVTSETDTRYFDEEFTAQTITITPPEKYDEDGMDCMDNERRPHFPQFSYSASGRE

[43] = biological target: Serine/threonine-protein kinase TBK1 (Homo sapiens) (UniProt Q9UHD2); conditions: Compound concentration 1000.0 nM
Serine/threonine-protein kinase TBK1 (Homo sapiens), sequence (Q9UHD2 whole entry): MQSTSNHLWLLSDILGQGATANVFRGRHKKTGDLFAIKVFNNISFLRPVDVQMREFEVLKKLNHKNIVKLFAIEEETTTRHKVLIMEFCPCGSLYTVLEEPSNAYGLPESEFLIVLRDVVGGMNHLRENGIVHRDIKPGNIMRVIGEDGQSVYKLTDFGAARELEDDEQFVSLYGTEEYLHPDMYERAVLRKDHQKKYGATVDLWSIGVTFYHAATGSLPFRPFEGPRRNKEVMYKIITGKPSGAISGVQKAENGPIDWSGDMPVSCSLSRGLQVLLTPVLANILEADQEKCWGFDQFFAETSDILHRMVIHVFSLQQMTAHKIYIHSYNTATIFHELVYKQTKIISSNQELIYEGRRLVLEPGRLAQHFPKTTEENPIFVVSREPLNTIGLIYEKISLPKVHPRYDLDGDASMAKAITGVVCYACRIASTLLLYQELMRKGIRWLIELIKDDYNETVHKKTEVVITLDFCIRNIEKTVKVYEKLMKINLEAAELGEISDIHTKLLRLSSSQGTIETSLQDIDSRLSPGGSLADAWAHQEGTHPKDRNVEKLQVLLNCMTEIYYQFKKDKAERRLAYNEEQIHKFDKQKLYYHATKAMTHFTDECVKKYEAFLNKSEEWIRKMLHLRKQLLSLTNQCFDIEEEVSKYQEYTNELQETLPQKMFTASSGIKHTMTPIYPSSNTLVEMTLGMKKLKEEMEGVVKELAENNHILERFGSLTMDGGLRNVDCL

[44] = biological target: Histamine H4 receptor (Homo sapiens) (UniProt Q9H3N8); conditions: Compound concentration 10.0 uM
[45] = biological target: Tyrosine-protein kinase ITK/TSK (Homo sapiens) (UniProt Q08881); conditions: Compound concentration 1000.0 nM

O=C(O)[C@@H]1[C@@H](Cn2nnc3ccccc3c2=O)CC[C@H]1C(=O)c1ccc(OCCC2CCOCC2)cc1 [BAY-694]
inactive: residual activity [1] 92% | residual activity [2] 92% | residual activity [3] 84% | residual activity [4] 100% | residual activity [5] 90% | residual activity [6] 95% | residual activity [7] 100% | residual activity [8] 100% | residual activity [9] 100% | residual activity [10] 100% | residual activity [11] 100% | residual activity [12] 100% | residual activity [13] 92% | residual activity [14] 100% | residual activity [15] 100% | residual activity [16] 56% | residual activity [17] 100% | residual activity [18] 89% | residual activity [19] 73% | residual activity [20] 100% | residual activity [21] 100% | residual activity [22] 100% | residual activity [23] 89% | residual activity [24] 100% | residual activity [25] 100% | residual activity [26] 100% | residual activity [27] 100% | residual activity [28] 100% | residual activity [29] 96% | residual activity [30] 73% | residual activity [31] 73% | residual activity [32] 76% | residual activity [33] 91% | residual activity [34] 99% | residual activity [35] 100% | residual activity [36] 100% | residual activity [37] 92% | residual activity [38] 100% | residual activity [39] 100% | residual activity [40] 93% | inhibition [41] 4.76% | residual activity [42] 100% | residual activity [43] 100% | inhibition [44] 3.39% | residual activity [45] 87%

O=C(O)[C@H]1[C@H](Cn2nnc3ccccc3c2=O)CC[C@@H]1C(=O)c1ccc(OCCC2CCOCC2)cc1 [BAY-7598]
inactive: residual activity [1] 100% | residual activity [2] 88% | residual activity [3] 100% | residual activity [4] 85% | residual activity [5] 100% | residual activity [6] 100% | residual activity [7] 81% | residual activity [8] 92% | residual activity [9] 90% | residual activity [10] 100% | residual activity [11] 90% | residual activity [12] 83% | residual activity [13] 81% | residual activity [14] 100% | residual activity [15] 95% | residual activity [16] 84% | residual activity [17] 90% | residual activity [18] 83% | residual activity [19] 97% | residual activity [20] 100% | residual activity [21] 100% | residual activity [22] 88% | residual activity [23] 96% | residual activity [24] 93% | residual activity [25] 99% | residual activity [26] 92% | residual activity [27] 88% | residual activity [28] 100% | residual activity [29] 100% | residual activity [30] 85% | residual activity [31] 93% | residual activity [32] 100% | residual activity [33] 100% | residual activity [34] 86% | residual activity [35] 90% | residual activity [36] 100% | residual activity [37] 100% | residual activity [38] 76% | residual activity [39] 97% | residual activity [40] 100% | inhibition [41] 1.16% | residual activity [42] 73% | residual activity [43] 94% | inhibition [44] 1.99% | residual activity [45] 100%

Source: ChEMBL document CHEMBL4507264, “Data for DCP probe BAY-7598” (2021)
